Measured values published in US20120035187A1 (priority 2009, published 2012).

Experiments:
[1] = tested on: ICR mice administered with amyloid β fragment; test: Degeneration or defect of hippocampal pyramidal cells, mouse administered with amyloid β fragment, agents of Example 1; assay type: in vivo; conditions: 4-point grade score none (0) to severe (3), average of 10 mice; agent of Example 1, 0.3 ml/head intraperitoneally once a day up to the 8th day
Procedure: One hundred and thirty ICR mice (commercialized by Charles Liver Laboratories Japan Inc., Kanagawa, Japan) were randomly divided into 13 groups, consisting of 10 mice in each group. Amyloid β fragment, represented by an amino acid sequence of SEQ ID NO: 1, used in Experiment 3 was aged at 37° C. for four days, and administered to the lateral ventricle of each mouse in an amount of 9 nmol/6 μl/mouse (the administration method is referred to “Brain Research”, Vol. 706, pp. 181-193 (1996)). […] The mice (10 heads) in the remaining one group were intraperitoneally administered with a sterilized 10% maltose solution (pyrogen-free) once a day up to the 8th day in an amount of 0.3 ml/mouse (control). On the 8th day after the administration, novel object recognition test (see, Japanese Patent Kokai No. 2008-193941) was performed and the average discrimination index (the ratio of prolonged seeking time for novel object to the total seeking time) as a cognitive function index were shown in Table 26. On the 9th day after the administration, the brain of the mice was anatomically isolated, prepared into tissue samples in conventional manner. Depositions of aggregation of amyloid fragment were observed by staining with Congo red or thioflavin T, and degeneration or defect of hippocampal pyramidal cells concerned with cognitive function. The degeneration or the defect of hippocampal pyramidal cells was evaluated by 4-point grade score, by regarding the condition of the control without administration of amyloid β fragment as “none (O)”, “slight (1)”, “moderate (2)”, and “sever (3)”, and the average scores of 10 mice are shown in Table 20.

[2] = tested on: hamsters with cerebellar ataxia; test: Rotarod test in hamsters with cerebellar ataxia; assay type: in vivo, hamster; conditions: for Time of falling from rotarod: hamster with cerebellar ataxia, agent of Example 1, 0.5 ml/hamster intraperitoneally once a day for 56 days
Text: (§1) Since NK-4 was confirmed to have a neurodegenerative inhibitory action in Experiment 1, hamsters with cerebellar ataxia (cerebellar ataxia is called “cerebellar A” and hamsters with cerebellar ataxia are called “hamsters with cerebellar A”, hereinafter) as a suitable model for human neurodegenerative diseases (e.g., spinal cerebellar degeneration) were subjected to examine the influence of NK-4 administration on their behaviors and brain tissues. Twenty-five hamsters with natural mutation (Nna1 inhibition), which are known to lose Purkinje's cells after three-weeks of age and then induce a spontaneous onset of kinetic motor ataxia after seven-weeks of age (see Akita K. et al., “J. Neurogenetics”, Vol. 21, pp. 19-29, 2007), had been fed at Hayashibara Biochemical Laboratories., Inc., Okayama, Japan, were randomly allocated to the test groups 1 to 5, five heads in each group, as shown in Table 2. Prior to the onset of cerebellar A (at three-weeks of age), PBS was started to administer to the hamsters in the test group 1 at a dose of 10 ml/kg/day. Prior to the onset of cerebellar A (at three-weeks of age), NK-4 was started to be administered to the hamsters in the test groups 2 to 4 at a daily dose of 20 μg/kg, 100 μg/kg or 500 μg/kg. “IGF-1, human, a product name of insulin-like growth factor, commercialized by Assaypro LLC, MO, USA. These administered ingredients were intraperitoneally administered daily to hamsters once a day up to 10-weeks of age. The degree of symptom of cerebellar A and the improvement effect on the symptom by NK-4 were evaluated with an index of improvement in motor coordination of hamsters by conducting once a week the later described rotarod test and the slant tolerance test. At the age of 10-weeks, the hamsters were subjected to counting the falling down frequency and extracted their brains, which were then histologically evaluated. In parallel, the concentration of glutamic acid in the bloods and cerebrospinal fluids (CSF) of the hamsters was assayed. As a test group 6, five normal hamsters, with the same age as the hamsters with cerebellar A used in the test groups 1 to 5, were provided and tested similarly as the hamsters with cerebellar A in such a manner of intraperitoneally administering PBS to them at a dose of 10 ml/kg/day once a day up to 10-weeks of age.
As an index for coordinated movement, it was used a duration time of hamster's movement to staying on a rotarod by locomotion in synchronization with the turn of the rotarod; placing a hamster on an apparatus with a rotarod (having a diameter of 60 mm, prepared by Hayashibara Biochemical Laboratories, Inc., Okayama, Japan), turning at a constant rate of six rpm, and measuring the time until the hamster falls down from the rotarod (see Fernandez et al., “Proc. Natl. Acad. Sci. USA”, Vol. 95, pp. 1253-1258, 1998). The test was repeated six times for each hamster, where five-times of tests starting from the initiation of the test were made as a preliminary examination, and the time until each hamster fell down from the rotarod (called “falling time”, hereinafter) was measured, followed by averaging the falling times for each group consisting of five heads. The falling time was measured until 180 seconds. Based on the results, the relationship between the age and the falling time for each hamster with cerebellar A (test group 1) administered with PBS was graphed. […]
Similarly as in Experiment 2, 130 hamsters with cerebellar ataxia, born within the same week and 3-weeks of age, were randomly divided into 13 groups, consisting of 10 hamsters, respectively. […]

PC12-HS cells = test: Evaluation B: neurite-outgrowth action in presence of NGF; assay type: cell-based, rat; conditions: for Evaluation B: Neurite-outgrowth action: 50 μl of 400 ng/ml test sample solution per well + NGF final 5 ng/ml, 3 days
[3] = tested on: hamsters with cerebellar ataxia; test: Falling down frequency of hamsters with cerebellar ataxia; assay type: in vivo, hamster; conditions: for Falling down frequency (frequency/min): cerebellar ataxia hamsters, 10-weeks of age; for Falling down frequency (count/min): hamster with cerebellar ataxia, agent of Example 1, 0.5 ml/hamster intraperitoneally once a day for 56 days
Text: as §1
Hamsters, 10-weeks of age, were respectively housed in a breeding cage. Their falling down frequencies within one minute were counted under a macroscopic observation and the data from five heads in each group were averaged. For reference, the hamsters with cerebellar A used in this experiment are known to increase their falling down frequencies after nine weeks of age.
Similarly as in Experiment 2, 130 hamsters with cerebellar ataxia, born within the same week and 3-weeks of age, were randomly divided into 13 groups, consisting of 10 hamsters, respectively. […] The hamsters (10 heads) in the remaining one group were intraperitoneally administered from their age of 3- to 10-weeks with a sterilized 10% maltose solution (pyrogen-free) in an amount of 0.5 ml/hamster (control) once a day for 56 days At the next day after the end of the administration, body weight of each hamster was weighed, followed by performing rotarod test, slope endurance test, and counting of falling down frequency. The types of compounds applied to each group and the results are in Table 25.

## CCN1C=CC(=CC=C(C=Cc2cc[n+](CC)c3ccccc23)c2cc[n+](CC)c3ccccc23)c2ccccc21.[I-].[I-] [NK-4]
[1]
  Degeneration/defluxion of hippocampal pyramidal cell: 1.1
[2]; 20 μg/kg body weight, 6-Weeks
  Delayed days until the onset of cerebellar ataxia in hamster: 11 days
[2]; 20 μg/kg body weight, 7-Weeks
  Delayed days until the onset of cerebellar ataxia in hamster: 17 days
[2]; 20 μg/kg body weight, 8-Weeks
  Delayed days until the onset of cerebellar ataxia in hamster: 17 days
[2]; 20 μg/kg body weight, 9-Weeks
  Delayed days until the onset of cerebellar ataxia in hamster: 27 days
[2]; 20 μg/kg body weight, 10-Weeks
  Delayed days until the onset of cerebellar ataxia in hamster: 32 days
[2]; 100 μg/kg body weight, 5-Weeks
  Delayed days until the onset of cerebellar ataxia in hamster: 7 days
[2]; 100 μg/kg body weight, 6-Weeks
  Delayed days until the onset of cerebellar ataxia in hamster: 14 days
[2]; 100 μg/kg body weight, 7-Weeks
  Delayed days until the onset of cerebellar ataxia in hamster: 21 days
[2]; 100 μg/kg body weight, 8-Weeks
  Delayed days until the onset of cerebellar ataxia in hamster: 21 days
[2]; 100 μg/kg body weight, 9-Weeks
  Delayed days until the onset of cerebellar ataxia in hamster: 29 days
[2]; 100 μg/kg body weight, 10-Weeks
  Delayed days until the onset of cerebellar ataxia in hamster: 36 days
[2]; 500 μg/kg body weight, 5-Weeks
  Delayed days until the onset of cerebellar ataxia in hamster: 6 days
[2]; 500 μg/kg body weight, 6-Weeks
  Delayed days until the onset of cerebellar ataxia in hamster: 14 days
[2]; 500 μg/kg body weight, 7-Weeks
  Delayed days until the onset of cerebellar ataxia in hamster: 21 days
[2]; 500 μg/kg body weight, 8-Weeks
  Delayed days until the onset of cerebellar ataxia in hamster: 21 days
[2]; 500 μg/kg body weight, 9-Weeks
  Delayed days until the onset of cerebellar ataxia in hamster: 28 days
[2]; 500 μg/kg body weight, 10-Weeks
  Delayed days until the onset of cerebellar ataxia in hamster: 35 days
[2]; cerebellar ataxia hamsters, 20 μg/kg body weight i.p. once a day from 3-weeks of age, 4-Weeks
  time (sec) endured until falling from rotarod apparatus: 152 ± 4 s
[2]; cerebellar ataxia hamsters, 20 μg/kg body weight i.p. once a day, 5-Weeks
  time (sec) endured until falling from rotarod apparatus: 53 ± 5 s
[2]; cerebellar ataxia hamsters, 20 μg/kg body weight i.p. once a day, 6-Weeks
  time (sec) endured until falling from rotarod apparatus: 89 ± 9 s
[2]; cerebellar ataxia hamsters, 20 μg/kg body weight i.p. once a day, 7-Weeks
  time (sec) endured until falling from rotarod apparatus: 74 ± 10 s
[2]; cerebellar ataxia hamsters, 20 μg/kg body weight i.p. once a day, 8-Weeks
  time (sec) endured until falling from rotarod apparatus: 36 ± 2 s
[2]; cerebellar ataxia hamsters, 20 μg/kg body weight i.p. once a day, 9-Weeks
  time (sec) endured until falling from rotarod apparatus: 48 ± 3 s
[2]; cerebellar ataxia hamsters, 20 μg/kg body weight i.p. once a day, 10-Weeks
  time (sec) endured until falling from rotarod apparatus: 40 ± 4 s
[2]; cerebellar ataxia hamsters, 100 μg/kg body weight i.p. once a day, 4-Weeks
  time (sec) endured until falling from rotarod apparatus: 136 ± 5 s
[2]; cerebellar ataxia hamsters, 100 μg/kg body weight i.p. once a day, 5-Weeks
  time (sec) endured until falling from rotarod apparatus: 145 ± 8 s
[2]; cerebellar ataxia hamsters, 100 μg/kg body weight i.p. once a day, 6-Weeks
  time (sec) endured until falling from rotarod apparatus: 139 ± 10 s
[2]; cerebellar ataxia hamsters, 100 μg/kg body weight i.p. once a day, 7-Weeks
  time (sec) endured until falling from rotarod apparatus: 122 ± 7 s
[2]; cerebellar ataxia hamsters, 100 μg/kg body weight i.p. once a day, 8-Weeks
  time (sec) endured until falling from rotarod apparatus: 79 ± 12 s
[2]; cerebellar ataxia hamsters, 100 μg/kg body weight i.p. once a day, 9-Weeks
  time (sec) endured until falling from rotarod apparatus: 66 ± 6 s
[2]; cerebellar ataxia hamsters, 100 μg/kg body weight i.p. once a day, 10-Weeks
  time (sec) endured until falling from rotarod apparatus: 66 ± 6 s
[2]; cerebellar ataxia hamsters, 500 μg/kg body weight i.p. once a day, 4-Weeks
  time (sec) endured until falling from rotarod apparatus: 156 ± 5 s
[2]; cerebellar ataxia hamsters, 500 μg/kg body weight i.p. once a day, 5-Weeks
  time (sec) endured until falling from rotarod apparatus: 95 ± 8 s
[2]; cerebellar ataxia hamsters, 500 μg/kg body weight i.p. once a day, 6-Weeks
  time (sec) endured until falling from rotarod apparatus: 119 ± 4 s
[2]; cerebellar ataxia hamsters, 500 μg/kg body weight i.p. once a day, 7-Weeks
  time (sec) endured until falling from rotarod apparatus: 145 ± 7 s
[2]; cerebellar ataxia hamsters, 500 μg/kg body weight i.p. once a day, 8-Weeks
  time (sec) endured until falling from rotarod apparatus: 85 ± 8 s
[2]; cerebellar ataxia hamsters, 500 μg/kg body weight i.p. once a day, 9-Weeks
  time (sec) endured until falling from rotarod apparatus: 60 ± 7 s
[2]; cerebellar ataxia hamsters, 500 μg/kg body weight i.p. once a day, 10-Weeks
  time (sec) endured until falling from rotarod apparatus: 52 ± 5 s
[2]; cerebellar ataxia hamsters, agents of Example 1 compared among pentamethine cyanine dye compounds
  improving effect on motor coordination (in words): particularly high improving effect on motor coordination
[2]; from rotarod falling time vs test group 1, 20 μg/kg body weight, 5-Weeks
  Delayed days until the onset of cerebellar ataxia in hamster: 0 days
[2]
  Time of falling from rotarod: 88.4 ± 3.2 s
PC12-HS cells
  Evaluation B: Neurite-outgrowth action: ∘ (The test sample with a neurite outgrowth rate of 30% or higher was judged to be equivalent or more (∘) compared with NK-4)
PC12-HS cells; compound concentration 80 ng/ml
  Action on neurite outgrowth (%): 25 ± 9%
PC12-HS cells; compound concentration 400 ng/ml
  Action on neurite outgrowth (%): 35 ± 9%
PC12-HS cells; compound concentration 2000 ng/ml
  Action on neurite outgrowth (%): 52 ± 4%
PC12-HS cells; compound concentration 10000 ng/ml
  Action on neurite outgrowth (%): 14 ± 6%
PC12-HS cells; final concentration of compound 200 ng/ml
  Rate of cells exhibiting neurite outgrowth (%): 22 ± 8%
PC12-HS cells; final concentration of compound 400 ng/ml
  Rate of cells exhibiting neurite outgrowth (%): 31 ± 14%
PC12-HS cells; final concentration of compound 800 ng/ml
  Rate of cells exhibiting neurite outgrowth (%): 51 ± 3%
PC12-HS cells; final concentration of compound 1600 ng/ml
  Rate of cells exhibiting neurite outgrowth (%): 49 ± 8%
[3]; 20 μg/kg body weight i.p. once a day
  Falling down frequency (frequency/min): 4.0 ± 1.0 frequency/min
[3]; 100 μg/kg body weight i.p. once a day
  Falling down frequency (frequency/min): 1.6 ± 0.9 frequency/min
[3]; 500 μg/kg body weight i.p. once a day
  Falling down frequency (frequency/min): 1.2 ± 0.8 frequency/min
[3]
  Falling down frequency (count/min): 1.1 ± 0.8 count/min

## COc1ccc2oc(/C=C/c3ccc(N(C)C)cc3)[n+](C)c2c1 [NK-1516]
[1]
  Degeneration/defluxion of hippocampal pyramidal cell: 1.9
[2]
  Time of falling from rotarod: 42.4 ± 6.3 s
PC12-HS cells
  Evaluation B: Neurite-outgrowth action: ∘ (The test sample with a neurite outgrowth rate of 30% or higher was judged to be equivalent or more (∘) compared with NK-4)
[3]
  Falling down frequency (count/min): 7.1 ± 0.8 count/min
